Measurements reported in US20170173052A1, “METHODS OF TREATING OVARIAN CANCER” (Cipla Limited, priority 2015, published 2017).
pIC50: −log10 of the molar value. Where two headings read alike, the source gives them in different places.

How the values were obtained:
[1] = test system: eight selected human ovarian cancer cell lines; test: In vitro cytotoxicity 2D assay (CellTiter-Blue cell viability), panel mean; assay type: cell-based; conditions: for pIC50: 96 h treatment, mean over eight ovarian cancer cell lines, read-out: geometric mean absolute IC50 value
Source text: (§1) In the present study the human ovarian cancer cell lines OVXF 899, OVXF 1023, A2780, SK-OV-3, OVCAR-3, IGR-OV1, OVCAR-5 and NCI/ADR-RES were used. OVXF 899 and OVXF 1023 were established at Oncotest, Germany from the corresponding human patient derived xenograft. A2780, IGR-OV1, NCl/ADR-RES, OVCAR-3 and OVCAR-5 were kindly provided by the NCI (National Cancer Institute, Bethesda, Md., USA). SK-OV-3 was purchased from ATCC (Rockville, Md., USA). Authenticity of cell lines was confirmed at the DSMZ by STR (short tandem repeat) analysis, a PCR based DNA-fingerprinting methodology. Cell lines were routinely passaged once or twice weekly and maintained in culture for up to 20 passages. All cells were grown at 37° C. in a humidified atmosphere with 5% CO2 in RPMI 1640 medium (25 mM HEPES, with L-glutamine, #FG1385, Biochrom, Berlin, Germany) supplemented with 10% (v/v) fetal calf serum (Sigma, Taufkirchen, Germany) and 0.1 mg/mL gentamicin (Life Technologies, Karlsruhe, Germany).
(§2) The CellTiter-Blue® Cell Viability Assay (#G8081, Promega) was used according to manufacturer's instructions. Briefly, cells were harvested from exponential phase cultures, […] on the cell line's growth rate. After a 24 h recovery period to allow the cells to resume exponential growth, test compounds were added.
(§3) Following an incubation period of up to four hours, fluorescence (FU) was measured by using the Enspire Multimode Plate Reader (excitation λ=531 nm, emission λ=615 nm). For calculations, the mean values of duplicate/six fold (untreated control) data were used. Sigmoidal concentration-response curves were fitted to the data points (T/C values) obtained for each cell line using 4 parameter non-linear curve fit (Oncotest Warehouse Software).
The in vitro anti-tumor activity of methacycline in eight selected human ovarian cancer cell lines were evaluated. […] Anti-tumor activity was assessed by using the CellTiter-Blue® Cell Viability Assay. Potency is expressed as absolute IC50 and relative IC50 values, calculated by non-linear regression analysis. […]

OVCAR3 = test: In vitro cytotoxicity 3D clonogenic assay; assay type: cell-based, human; conditions: based on relative IC50 (individual IC50 <1/2 mean IC50)
Description: (§4) In the present study methacycline and the reference compound paclitaxel were investigated for anticancer activity ex vivo in eight human tumor cell lines of ovarian cancer. Tests were carried out using a 3D clonogenic assay in 96-well format with image based read-out. The aim of the study was to investigate antitumor potency and tumor type selectivity of the compound. Cell lines were routinely passaged one or twice weekly. All cells were grown at 37° C. in a humidified atmosphere with 5% CO2 in RPMI 1640 medium (Biochrom) supplemented with 10% (v/v) fetal calf serum and 0.1 mg/mL gentamicin. The percentage of viable cells was determined in a Neubauer-hemocytometer using trypan blue exclusion.
(§5) The clonogenic assay was carried out in a 96 well plate format using ultra low attachment plates. For each test, cells were prepared as described above and assay plates were prepared as follows: each test well contained a layer of semi-solid medium with tumor cells (50 μL), and a second layer of medium supernatant with or without test compound (100 μL). The cell layer consisted of 2·10^3 to 3·10^3 tumor cells per well, which were seeded in 50 μL/well cell culture medium (IMDM, supplemented with 20% (v/v) fetal calf serum, 0.01% (w/v) gentamicin, and 0.4% (w/v) agar. After 24 hours the test compounds were added after serial dilution in cell culture medium, and left on the cells for the duration of the experiment (continuous exposure, 100 μl drug overlay). Test concentrations ranged from 0.01 μM to 316.2 μM (methacycline), and 0.000095 μM to 3 (paclitaxel). Every plate included six untreated control wells and drug-treated groups in duplicate at 9 concentrations. Cultures were incubated at 37° C. and 7.5% CO2 in a humidified atmosphere for 8 to 13 days and monitored closely for colony growth using an inverted microscope. Within this period, ex vivo tumor growth led to the formation of colonies with a diameter of >50 μm. At the time of maximum colony formation, counts were performed with an automatic image analysis system (Bioreader 5000-Wa Biosys GmbH). 48 hours prior to evaluation, vital colonies were stained with a sterile aqueous solution of 2-(4-iodophenyl)-3-(4-nitrophenyl)-5-phenyltetrazolium chloride (1 mg/ml, 100 μl/well)

OVCAR-5 [2] = test: In vitro cytotoxicity 3D clonogenic assay; assay type: cell-based, human; conditions: based on relative IC50
Description: as §4, §5

IGR-OV1 [3] = test: In vitro cytotoxicity 3D clonogenic assay; assay type: cell-based, human; conditions: based on relative IC50
Description: as §4, §5

OVXF SK-OV-3 = test: In vitro combination study, 2D monolayer CellTiter-Blue, 5x5 matrix; assay type: cell-based; conditions: Homo sapiens, 96 h, single agent, four days, read-out: IC50, tumor cell viability, single agent
Description: (§6) The objective of this study was to assess anti-tumor efficacy of methacycline in combination with paclitaxel in a 5×5 matrix combination format against various ovarian cancer cell lines. The compounds were tested in ovarian cell lines, namely OVXF A2780 and OVXF SK-OV-3, obtained from National Cancer Institute (Bethesda, Md., USA). OVXF SKOV-3 cells were obtained from American Type Culture Collection (Rockville, Md., USA). Authenticity of cell lines was confirmed at the DSMZ by STR analysis. Cell lines were routinely passaged once or twice weekly and maintained in culture for up to 20 passages. Cells were grown at 37° C. in a humidified atmosphere with 5% CO2 in RPMI 1640 medium (25 mM HEPES, with L-glutamine, Biochrom) supplemented with 10% (v/v) fetal calf serum and 0.1 mg/mL gentamicin. The percentage of viable cells was determined in a Neubauer-hemocytometer using trypan blue exclusion.
The CellTiter-Blue® Cell Viability Assay (#G8081, Promega) was used according to manufacturer's instructions. Briefly, cells were harvested from exponential phase cultures, counted and plated in 96-well flat-bottom microtiter plates at a cell density of 4,000-8,000 cells/well depending on the cell line's growth rate. […] Following an incubation period of up to four hours, fluorescence (FU) was measured by using the Enspire Multimode Plate Reader (excitation λ=531 nm, emission λ=615 nm). […]

[4] = test system: eight human tumor cell lines of ovarian cancer; test: In vitro cytotoxicity 3D clonogenic assay, panel; assay type: cell-based; conditions: for pIC50: Homo sapiens, continuous exposure 8 to 13 days
Description: as §4
as §5, with “48 hours prior to evaluation, vital colonies were stained with a sterile aqueous solution of 2-(4-iodophenyl)-3-(4-nitrophenyl)-5-phenyltetrazolium chloride (1 mg/ml, 100 μl/well)” left out

OVXF IGR-OV1 = test: In vitro combination study, 2D monolayer CellTiter-Blue, 5x5 matrix; assay type: cell-based, human; conditions: single agent, four days, read-out: IC50, tumor cell viability, single agent
Description: as §6
(§7) The CellTiter-Blue® Cell Viability Assay (#G8081, Promega) was used according to manufacturer's instructions. Briefly, cells were harvested from exponential phase cultures, counted and plated in 96-well flat-bottom microtiter plates at a cell density of 4,000-8,000 cells/well depending on the cell line's growth rate. After a 24 h recovery period to allow the cells to resume exponential growth, 10 μL of culture medium (twelve control wells/plate) or of culture medium with test compound were added, and treatment continued for four days. After four days treatment of cells, 20 μl/well CellTiter-Blue® reagent was added. Following an incubation period of up to four hours, fluorescence (FU) was measured by using the Enspire Multimode Plate Reader (excitation λ=531 nm, emission λ=615 nm). […]
(§8) In the present study, methacycline was tested alone and in combination with paclitaxel in order to investigate the ability to inhibit tumor cell growth of ovarian cancer cell lines in a 5×5 matrix combination format. Efficacy of methacycline combined with paclitaxel was assessed by measuring tumor cell viability using a 2D monolayer assay in cell lines OVXF A2780, OVXF IGR-OV1, OVXF SK-OV-3.

A2780 [5] = test: In vitro cytotoxicity 3D clonogenic assay; assay type: cell-based, human; conditions: based on relative IC50 (individual IC50 <1/2 mean IC50)
Description: as §4, §5

NCI-ADR-RES = test: In vitro cytotoxicity 3D clonogenic assay; assay type: cell-based, human
Description: as §4, §5

SK-OV-3 [6] = test: In vitro cytotoxicity 3D clonogenic assay; assay type: cell-based, human; conditions: based on relative IC50 (individual IC50 <1/2 mean IC50)
Description: as §4, §5

OVXF 899L = test: In vitro cytotoxicity 3D clonogenic assay; assay type: cell-based, human
Description: as §4, §5

OVXF 1023L = test: In vitro cytotoxicity 3D clonogenic assay; assay type: cell-based, human
Description: as §4, §5

[7] = test system: ovarian cancer cell lines A2780, OVCAR3, OVCAR-5, and SK-OV-3; test: In vitro cytotoxicity 3D clonogenic assay, responding lines; assay type: cell-based, human; conditions: range over A2780, OVCAR3, OVCAR-5, SK-OV-3, read-out: IC50 values, inhibition of colony formation
Description: as §4
The clonogenic assay was carried out in a 96 well plate format using ultra low attachment plates. For each test, cells were prepared as described above and assay plates were prepared as follows: each test well contained a layer of semi-solid medium with tumor cells (50 μL), and a second layer of medium supernatant with or without test compound (100 μL). […] Cultures were incubated at 37° C. and 7.5% CO2 in a humidified atmosphere for 8 to 13 days and monitored closely for colony growth using an inverted microscope. […]

A2780 [8] = test: In vitro cytotoxicity 2D assay (CellTiter-Blue cell viability); assay type: cell-based, human; conditions: 96 h treatment, read-out: absolute IC50
Source text: as §1, §2, §3
(§9) The in vitro anti-tumor activity of methacycline in eight selected human ovarian cancer cell lines were evaluated. The test compounds was applied at 10 concentrations in half-log increments up to 300 μM. As a reference compound paclitaxel was tested in parallel. Cells were treated for 96 h with the test compounds. Anti-tumor activity was assessed by using the CellTiter-Blue® Cell Viability Assay. Potency is expressed as absolute IC50 and relative IC50 values, calculated by non-linear regression analysis. Results are depicted in FIGS. 1-4.

NCI/ADR-RES = test: as above; assay type: cell-based, human; conditions: 96 h treatment, read-out: absolute IC50
Source text: as §1, §2, §3, §9

OVCAR-5 [9] = test: as above; assay type: cell-based, human; conditions: 96 h treatment, read-out: absolute IC50
Source text: as §1, §2, §3, §9

SK-OV-3 [10] = test: as above; assay type: cell-based, human; conditions: 96 h treatment, read-out: absolute IC50
Source text: as §1, §2, §3, §9

IGR-OV1 [11] = test: as above; assay type: cell-based, human; conditions: 96 h treatment, read-out: absolute IC50
Source text: as §1, §2, §3, §9

OVCAR-3 = test: as above; assay type: cell-based, human; conditions: 96 h treatment, read-out: absolute IC50
Source text: as §1, §2, §3, §9

OVXF A2780 = test: In vitro combination study, 2D monolayer CellTiter-Blue, 5x5 matrix; assay type: cell-based, human; conditions: single agent, four days, read-out: IC50, tumor cell viability, single agent
Description: as §6, §7, §8

CC(=O)O[C@H]1C(=O)[C@@]2(C)[C@H]([C@H](OC(=O)c3ccccc3)[C@]3(O)C[C@H](OC(=O)[C@H](O)[C@@H](NC(=O)c4ccccc4)c4ccccc4)C(C)=C1C3(C)C)[C@]1(OC(C)=O)CO[C@@H]1C[C@@H]2O [paclitaxel]
pIC50 ([1]; Homo sapiens): 7.35 | activity against colony formation (OVCAR3): above average activity | activity against colony formation (OVCAR-5 [2]): above average activity | activity against colony formation (IGR-OV1 [3]): above average activity | pIC50 (OVXF SK-OV-3): 8.05 | pIC50 ([4]; read-out: mean absolute IC50 value, colony formation): 7.11 | pIC50 ([4]; read-out: mean relative IC50 value, colony formation): 7.92 | bottom plateaus of the concentration-effect curves of responding tumor models ([4]; responding tumor models): 0% to 60 | pIC50 (OVXF IGR-OV1; Homo sapiens, IGROV-1, 96 h): 8.52

methacycline
pIC50 [1]: 4.57 | difference between the most sensitive and most resistant cell line ([1]; IGR-OV1 vs NCI/ADR-RES IC50): 13 fold | activity against colony formation (A2780 [5]): above average activity | activity against colony formation (OVCAR3): above average activity | activity against colony formation (NCI-ADR-RES): No activity | activity against colony formation (SK-OV-3 [6]): above average activity | activity against colony formation (OVXF 899L): No activity | activity against colony formation (OVXF 1023L): No activity | activity against colony formation (IGR-OV1 [3]): No activity | pIC50 [7]: 4.15 to 4.27 | pIC50 (A2780 [8]): 4.64 | pIC50 (NCI/ADR-RES): 3.98 | pIC50 (OVCAR-5 [9]): 4.84 | pIC50 (SK-OV-3 [10]): 4.73 | pIC50 (IGR-OV1 [11]): 5.10 | pIC50 (OVCAR-3): 4.76 | pIC50 (OVXF A2780): 4.46 | pIC50 (OVXF IGR-OV1): 4.36
